{"source": "patent US11738031B2", "about": "“Compositions and methods for preventing or treating muscle conditions” (The Board of Trustees of the Leland Stanford Junior …, priority 2017, dated 2023)", "key": {"[1]": {"tested_on": "muscle stem cells (MuSCs)", "test": "MuSC proliferation in culture, cell number count (hemocytometer)", "assay_type": "cell-based, mouse", "conditions": "ONO-AE3-208 1 μM with PGE2 10 ng/ml, 24 hr treatment", "experimental": "(§1) Muscle stem cell culture, treatment and lentiviral infection: Following isolation, we resuspended MuSCs in myogenic cell culture medium containing DMEM/F10 (50:50), 15% FBS, 2.5 ng ml^−1 fibroblast growth factor-2 (FGF-2 also known as bFGF) and 1% penicillin-streptomycin. We seeded MuSC suspensions at a density of 500 cells per cm^2 surface area. We maintained cell cultures at 37° C. in 5% CO2 and changed medium daily. For PGE2, 15-PGDH inhibitor and EP4 receptor antagonist treatment studies, we added 1-200 ng/ml Prostaglandin E2 (Cayman Chemical) (unless specified in the figure legends, 10 ng/ml was the standard concentration used), and/or 1 μM EP4 antagonist (ONO-AE3-208, Cayman Chemical), or 1 μM 15-PGDH inhibitor (SW033291, Cayman Chemical) to the MuSCs cultured on collagen coated dishes for the first 24 h. The cells were then trypsinized and cells reseeded onto hydrogels for an additional 6 days of culture. All treatments were compared to their solvent (DMSO) vehicle control. For stripped serum assays, we resuspended isolated MuSCs in medium containing DMEM/F10 (50:50), 15% charcoal stripped FBS (Gibco, cat #12676011), 2.5 ng ml^−1 bFGF and 1% penicillin-streptomycin. […]\nProliferation assays: To assay proliferation, we used three different assays (hemocytometer, VisionBlue, and EdU). […] For hemocytometer cell number count, we collected cells at indicated timepoints by incubation with 0.5% trypsin in PBS for 5 min at 37° C. and quantified them using a hemocytometer at least 3 times. Additionally, we used the VisionBlue Quick Cell Viability Fluorometric Assay Kit (BioVision, catalog #K303) as a readout for cell growth in culture. Briefly, we incubated MuSCs with 10% VisionBlue in culture medium for 3 h, and measured fluorescence intensity on a fluorescence plate reader (Infinite M1000 PRO, Tecan) at Ex=530-570 nm, Em=590-620 nm. […] We quantified EdU positive cells using the MetaMorph Image Analysis software (Molecular Devices). Data analyses were blinded, where researchers performing cell scoring were unaware of the treatment condition given to sample groups analyzed. […]"}, "aged MuSCs": {"tested_on": "aged MuSCs", "test": "Aged MuSC proliferation in culture", "assay_type": "cell-based, mouse", "conditions": "PGE2 10 ng/ml or SW033291 1 μM, 24 hr, assayed at day 7", "experimental": "as §1\nProliferation assays: To assay proliferation, we used three different assays (hemocytometer, VisionBlue, and EdU). […] For hemocytometer cell number count, we collected cells at indicated timepoints by incubation with 0.5% trypsin in PBS for 5 min at 37° C. and quantified them using a hemocytometer at least 3 times. Additionally, we used the VisionBlue Quick Cell Viability Fluorometric Assay Kit (BioVision, catalog #K303) as a readout for cell growth in culture. Briefly, we incubated MuSCs with 10% VisionBlue in culture medium for 3 h, and measured fluorescence intensity on a fluorescence plate reader (Infinite M1000 PRO, Tecan) at Ex=530-570 nm, Em=590-620 nm. […] We quantified EdU positive cells using the MetaMorph Image Analysis software (Molecular Devices). Data analyses were blinded, where researchers performing cell scoring were unaware of the treatment condition given to sample groups analyzed."}, "[2]": {"tested_on": "endogenous MuSCs in TA muscle", "test": "Endogenous MuSC BLI in Pax7CreERT2;Rosa26-LSL-Luc mice after cardiotoxin injury", "assay_type": "in vivo, mouse", "conditions": "single indomethacin injection three days post-cardiotoxin injury", "experimental": "Bioluminescence imaging: We performed bioluminescence imaging (BLI) using a Xenogen-100 system, as previously described^1,5,6. Briefly, we anesthetized mice using isofluorane inhalation and administered 120 μL D-luciferin (0.1 mmol kg^−1, reconstituted in PBS; Caliper LifeSciences) by intraperitoneal injection. We acquired BLI using a 60 s exposure at F-stop=1.0 at 5 minutes after luciferin injection. Digital images were recorded and analyzed using Living Image software (Caliper LifeSciences). We analyzed images with a consistent region-of-interest (ROI) placed over each hindlimb to calculate a bioluminescence signal. We calculated a bioluminescence signal in radiance (p s^−1 cm^−2 sr^−1) value of 10^4 to define an engraftment threshold. This radiance threshold of 10^4 is approximately equivalent to the total flux threshold in p/s reported previously. This BLI threshold corresponds to the histological detection of one or more GFP+ myofibers^1,5,6. We performed BLI imaging every week after transplantation. […]\nWe performed bioluminescence imaging (BLI) using a Xenogen-100 system, as previously described (24, 26, 27, 30). […] Digital images were recorded and analyzed using Living Image software (Caliper LifeSciences). We analyzed images with a consistent region-of-interest (ROI) placed over each hindlimb to calculate a bioluminescence signal. We calculated a bioluminescence signal in radiance (p s^−1 cm^−2 sr^−1) value of 10^4 to define an engraftment threshold. […]\nBioluminescent Imaging: For bioluminescence imaging (BLI), we anesthetized mice using isofluorane inhalation and administered 120 μL D-luciferin (0.1 mmol kg^−1, reconstituted in PBS; Caliper LifeSciences) by intraperitoneal injection. […] Digital images were recorded and analyzed using Living Image software (Caliper LifeSciences). We analyzed images with a consistent region-of-interest (ROI) placed over each hindlimb to calculate a bioluminescence signal. We calculated a bioluminescence signal in radiance (p s^−1 cm^−2 sr^−1) value of 10^4 to define an engraftment threshold. […]"}, "TA muscle": {"tested_on": "TA muscle", "test": "In vivo muscle force at day 14 post-injury (TA)", "set-up": "species or system mouse", "experimental": "We used an injury model entailing intramuscular injection of 10 μl of notexin (10 μg ml^−1; Latoxan, catalog #L8104) or cardiotoxin (10 μM; Latoxan, catalog #L8102) into the Tibialis anterior (TA) muscle. For cryoinjury, an incision was made in the skin overlying the TA muscle and a copper probe, chilled in liquid nitrogen, was applied to the TA muscle for three 10 s intervals, allowing the muscle to thaw between each application of the cryoprobe. When indicated, 48 hr after injury either 16,16-Dimethyl Prostaglandin E2 (dmPGE2) (13 nmol, Tocris, catalog #4027), Indomethacin (35 μg, Sigma, catalog #17378) or vehicle control (PBS) was injected into the TA muscle. The contralateral TA was used as an internal control, except for the force measurement experiments where each mouse had both legs injured with the same condition and independent mice were used for each condition.\nMice were injured as described in the Muscle injury section. […] Data were collected with a PCI-6251 acquisition card (National Instruments) and analyzed in Matlab. We calculated specific force values by normalizing the force measurements by the muscle physiological cross-sectional areas (PCSAs), which were similar between groups. PCSA (measured in mm^2) was calculated according to the following equation (55): PCSA (mm^2)=[mass (g)×Cos θ]÷[ρ (g/mm^3)×fiber length (mm)], […]"}, "[3]": {"tested_on": "PGE2 levels of conditioned medium from isolated fibers", "test": "PGE2 ELISA of conditioned medium from isolated fibers", "assay_type": "cell-based, mouse", "conditions": "indomethacin 1 μM, 24 hours", "experimental": "For conditioned medium assays, muscle fibers from the extensor digitorum longus (EDL) were isolated as previously described (53). Fibers were cultured in stripped serum medium in the presence or absence of indomethacin (1 μM, Sigma) for 24 hours. Conditioned medium was collected and measured using the PGE2 ELISA Kit (R&D Systems, catalog #KGE004B) and expressed relative to the collected volume (ml). Each sample was assayed in triplicate and in two independent experiments. […]"}}, "note": "“Also recorded” adds a separate entry of the source."}
{"smiles": "CC(C(=O)Nc1cc(C#N)ccc1CCCC(=O)O)c1ccc(F)c2ccccc12", "note": "(stereo not drawn) [ONO-AE3-208]", "values": [{"measurement": "proliferation induced by PGE2 in the presence of EP4 antagonist", "setting": "[1]", "value": "blunted"}]}
{"smiles": "CCCC[S+]([O-])c1sc2nc(-c3cccs3)cc(-c3ccccc3)c2c1N", "note": "(stereo not drawn) [SW033291]", "values": [{"measurement": "aged MuSC proliferation and Pax7 expression after 1-day pulse", "setting": "aged MuSCs", "value": "characteristic increase in proliferation and maintenance of Pax7 expression"}]}
{"smiles": "COc1ccc2c(c1)c(CC(=O)O)c(C)n2C(=O)c1ccc(Cl)cc1", "note": "[indomethacin]", "values": [{"measurement": "luciferase activity (BLI) of endogenous MuSCs after indomethacin", "setting": "[2]", "value": "significant decrease in luciferase activity; also recorded: decline in BLI relative to controls"}, {"measurement": "reduction in twitch force compared to controls", "setting": "TA muscle; NSAID (indomethacin) treatment, day 14 post-cardiotoxin", "value": "33±7", "unit": "%"}, {"measurement": "Twitch force vs control group", "setting": "TA muscle; indomethacin into cardiotoxin-injured muscles, day 14 post-injury", "value": "significant loss in Twitch force"}, {"measurement": "PGE2 synthesis by isolated myofibers", "setting": "[3]", "value": "markedly reduced"}]}
